Where a name gives a salt, the structure may show the parent alone.
Target: T1, PLK1 (Homo sapiens, UniProt P53350)
T1 construct: PLK kinase domain (amino acids 21-346 preceded by MKKGHHHHHHD); made in house; host or cells: baculovirus infected T. ni cells
Test: Assay for inhibition of PLK1 (SPA kinase assay)
Type: biochemical
Conditions: 1 μM ATP, 2 nM PLK1 kinase domain, read-out: PLK1 pIC50 (converted)
Method: I. Assay for Inhibition of PLK1
A. Preparation of 6× N-terminal His-tagged PLK Kinase Domain
6× N-terminal His-tagged PLK kinase domain (amino acids 21-346 preceded by MKKGHHHHHHD) SEQ ID: No. 1. was prepared from baculovirus infected T. ni cells under polyhedrin promoter control. All procedures were performed at 4° C. Cells were lysed In 50 mM HEPES, 200 mM NaCl, 50 mM imidazole, 5% glycerol; pH 7.5. The homogenate was centrifuged at 14K rpm in a SLA-1500 rotor for 1 hr and the supernatant filtered through a 1.2 micron filter. The supernatant was loaded onto a Nickel chelating Sepharose (Amersham Pharmacia) column and washed with lysis buffer. Protein was eluted using 20%, 30% and 100% buffer B steps where buffer B was 50 mM HEPES, 200 mM NaCl, 300 mM imidazole, 5% glycerol; pH 7.5. Fractions containing PLK were determined by SDS-PAGE. Fractions containing PLK were diluted five-fold with 50 mM HEPES, 1 mM DTT, 5% glycerol; pH 7.5, then loaded on an SP Sepharose (Amersham Pharmacia) column. After washing the column with 50 mM HEPES, 1 mM DTT, 5% glycerol; pH 7.5, PLK was step eluted with 50 mM HEPES, 1 mM DTT, 500 mM NaCl; 5% glycerol; pH 7.5. PLK was concentrated using a 10 kDa molecular weight cutoff membrane and then loaded onto a Superdex 200 gel filtration (Amersham Pharmacia) column equilibrated in 25 mM HEPES, 1 mM DTT, 500 mM NaCl, 5% glycerol; pH 7.5. Fractions containing PLK were determined by SDS-PAGE. PLK was pooled, aliquoted and stored at −80° C. Samples were quality controlled using mass spectrometry, N-terminal sequencing and amino acid analysis.
B. Enzyme Activity +/− Inhibitors was Determined as Follows:
All measurements were obtained under conditions where signal production increased linearly with time and enzyme. Test compounds were added to white 384-well assay plates (0.1 μL for 10 μL and some 20 μL assays, 1 μL for some 20 μL assays) at variable known concentrations in 100% DMSO. DMSO (1-5% final, as appropriate) and EDTA (65 mM in reaction) were used as controls. Reaction Mix was prepared as follows at 22° C.: • 25 mM HEPES, pH 7.2 • 15 mM MgCl2 • 1 μM ATP • 0.05 μCi/well ^33P-γ ATP (10 Ci/mMol) • 1 μM substrate peptide (Biotin-Ahx-SFNDTLDFD) SEQ ID:No. 2. • 0.15 mg/mL BSA • 1 mM DTT • 2 nM PLK1 kinase domain (added last)
Reaction Mix (10 or 20 μL) was quickly added to each well immediately following addition of enzyme via automated liquid handlers and incubated 1-1.5 h at 22° C. The 20 μL enzymatic reactions were stopped with 50 μL of stop mix (50 mM EDTA, 4.0 mg/mL Streptavidin SPA beads in Standard Dulbecco's PBS (without Mg^2+ and Ca^2+), 50 μM ATP) per well. The 10 μL reactions were stopped with 10 μL of stop mix (50 mM EDTA, 3.0 mg/mL Streptavidin-coupled SPA imaging Beads (“LeadSeeker”) in Standard Dulbecco's PBS (without Mg^2+ and Ca^2+), 50 μM ATP) per well. Plates were sealed with clear plastic seals, spun at 500×g for 1 min or settled overnight, and counted in Packard TopCount for 30 seconds/well (regular SPA) or imaged using a Viewlux imager (LeadSeeker SPA). Signal above background (EDTA controls) was converted to percent Inhibition relative to that obtained in control (DMSO-only) wells.

T1 sequence (P53350 21-346): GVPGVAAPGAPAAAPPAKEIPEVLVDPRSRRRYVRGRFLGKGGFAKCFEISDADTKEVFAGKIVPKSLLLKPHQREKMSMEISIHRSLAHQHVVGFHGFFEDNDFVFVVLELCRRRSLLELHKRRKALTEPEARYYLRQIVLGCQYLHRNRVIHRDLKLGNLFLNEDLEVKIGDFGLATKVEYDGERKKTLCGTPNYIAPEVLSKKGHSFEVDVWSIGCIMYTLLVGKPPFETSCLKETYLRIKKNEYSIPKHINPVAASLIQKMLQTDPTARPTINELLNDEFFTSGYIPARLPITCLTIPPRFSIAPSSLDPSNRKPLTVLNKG

SMILES | IC50
C[C@@H](Oc1cc(-n2cnc3cc(Cl)ccc32)sc1C(N)=O)c1cccc(OCCN2CCOCC2)c1Cl [Example 26, 5-(5-Chloro-1H-benzimidazol-1-yl)-3-{[(1R)-1-(2-chloro-3-{[2-(4-morpholinyl)ethyl]oxy}phenyl)ethyl]oxy}-2-thiophenecarboxamide] | < 0.1 µM
C[C@@H](Oc1cc(-n2cnc3cc(Cl)ccc32)sc1C(N)=O)c1cccc(OC[C@H]2CNCCO2)c1Cl [Example 27, 5-(5-Chloro-1H-benzimidazol-1-yl)-3-{[(1R)-1-(2-chloro-3-{[(2R)-2-morpholinylmethyl]oxy}phenyl)ethyl]oxy}-2-thiophenecarboxamide] | < 0.1 µM
C[C@@H](Oc1cc(-n2cnc3cc(Cl)ccc32)sc1C(N)=O)c1cccc(OC[C@@H]2CNCCO2)c1Cl [Example 28, 5-(5-Chloro-1H-benzimidazol-1-yl)-3-{[(1R)-1-(2-chloro-3-{[(2S)-2-morpholinylmethyl]oxy}phenyl)ethyl]oxy}-2-thiophenecarboxamide] | < 0.1 µM
C[C@@H](Oc1cc(-n2cnc3cc(-c4cnn(C)c4)ccc32)sc1C(N)=O)c1cccc(OC2CCN(CCF)CC2)c1Cl [Example 29, 3-{[(1R)-1-(2-Chloro-3-{[1-(2-fluoroethyl)-4-piperidinyl]oxy}phenyl)ethyl]oxy}-5-[5-(1-methyl-1H-pyrazol-4-yl)-1H-benzimidazol-1-yl]-2-thiophenecarboxamide] | < 0.1 µM
C[C@@H](Oc1cc(-n2cnc3cc(-c4cnn(C)c4)ccc32)sc1C(N)=O)c1cccc(OC2CCN(CCC(F)(F)F)CC2)c1Cl [Example 30, 3-{[(1R)-1-(2-chloro-3-{[1-(3,3,3-trifluoropropyl)-4-piperidinyl]oxy}phenyl)ethyl]oxy}-5-[5-(1-methyl-1H-pyrazol-4-yl)-1H-benzimidazol-1-yl]-2-thiopenecarboxamide] | < 0.1 µM
C[C@@H](Oc1cc(-n2cnc3cc(-c4cnn(C)c4)ccc32)sc1C(N)=O)c1cccc(OC2CCN(CCS(C)(=O)=O)CC2)c1Cl [Example 31, 3-({(1R)-1-[2-Chloro-3-({1-[2-(methylsulfonyl)ethyl]-4-piperldinyl}oxy)phenyl]ethyl}oxy)-5-[5-(1-methyl-1H-pyrazol-4-yl)-1H-benzimidazol-1-yl]-2-thiophenecarboxamide] | < 0.1 µM
C[C@@H](Oc1cc(-n2cnc3cc(Cl)ccc32)sc1C(N)=O)c1ccc(F)c(OC2CCN(C)CC2)c1Cl [Example 32, 5-(5-Chloro-1H-benzimidazol-1-yl)-3-[((1R)-1-{2-chloro-4-fluoro-3-[(1-methyl-4-piperidinyl)oxy]phenyl}ethyl)oxy]-2-thiophenecarboxamide] | < 0.1 µM
C[C@@H](Oc1cc(-n2cnc3cc(-c4cnn(C)c4)ccc32)sc1C(N)=O)c1ccc(F)c(OC2CCNCC2)c1Cl [Example 33, 3-({(1R)-1-[2-Chloro-4-fluoro-3-(4-piperidinyloxy)phenyl]ethyl}oxy)-5-[5-(1-methyl-1H-pyrazol-4-yl)-1H-benzimidazol-1-yl]-2-thiophenecarboxamide] | < 0.1 µM
C[C@@H](Oc1cc(-n2cnc3cc(-c4cnn(C)c4)ccc32)sc1C(N)=O)c1ccc(F)c(OC2CCN(C)CC2)c1Cl [Example 34, 3-[((1R)-1-{2-Chloro-4-fluoro-3-[(1-methyl-4-piperidinyl)oxy]phenyl}ethyl)oxy]-5-[5-(1-methyl-1H-pyrazol-4-yl)-1H-benzimidazol-1-yl]-2-thiophenecarboxamide trifluoroacetate] | < 0.1 µM

The remaining lines, values ahead:

IC50 | SMILES
< 0.1 µM | C[C@@H](Oc1cc(-n2cnc3cc(-c4cnn(C)c4)ccc32)sc1C(N)=O)c1ccc(F)c(OC2CCN(CCF)CC2)c1Cl [Example 35, 3-{[(1R)-1-(2-Chloro-4-fluoro-3-{[1-(2-fluoroethyl)-4-piperidinyl]oxy}phenyl)ethyl]oxy}-5-[5-(1-methyl-1H-pyrazol-4-yl)-1H-benzimidazol-1-yl]-2-thiophenecarboxamide]
< 0.1 µM | C[C@@H](Oc1cc(-n2cnc3cc(-c4cnn(C)c4)ccc32)sc1C(N)=O)c1ccc(F)c(OC2CCN(CCS(C)(=O)=O)CC2)c1Cl [Example 36, 3-({(1R)-1-[2-Chloro-4-fluoro-3-({1-[2-(methylsulfonyl)ethyl]-4-piperidinyl}oxy)phenyl]ethyl}oxy)-5-[5-(1-methyl-1H-pyrazol-4-yl)-1H-benzimidazol-1-yl]-2-thiophenecarboxamide]
< 0.1 µM | C[C@@H](Oc1cc(-n2cnc3cc(-c4cc[n+]([O-])cc4)ccc32)sc1C(N)=O)c1cccc(OC2CCNCC2)c1Cl [Example 37, 3-({(1R)-1-[2-Chloro-3-(4-piperidinyloxy)phenyl]ethyl}oxy)-5-[5-(1-oxido-4-pyridinyl)-1H-benzimidazol-1-yl]-2-thiophenecarboxamide]
< 0.1 µM | C[C@@H](Oc1cc(-n2cnc3cc(-c4cnn(C)c4)ccc32)sc1C(N)=O)c1c(F)ccc(OC2CCN(C)CC2)c1Cl [Example 38, 3-[((1R)-1-{2-Chloro-6-fluoro-3-[(1-methyl-4-piperidinyl)oxy]phenyl}ethyl)oxy]-5-[5-(1-methyl-1H-pyrazol-4-yl)-1H-benzimidazol-1-yl]-2-thiophenecarboxamide]
< 0.1 µM | COc1cc2ncn(-c3cc(O[C@H](C)c4cccc(OCC5CCN(C(=O)OC(C)(C)C)CC5)c4Cl)c(C(N)=O)s3)c2cc1OC [Example 39, 1,1-Dimethylethyl 4-[({3-[(1R)-1-({2-(aminocarbonyl)-5-[5,6-bis(methyloxy)-1H-benzimidazol-1-yl]-3-thienyl}oxy)ethyl]-2-chlorophenyl}oxy)methyl]-1-piperidinecarboxylate]
< 0.1 µM | COc1cc2ncn(-c3cc(O[C@H](C)c4cccc(OCC5CCNCC5)c4Cl)c(C(N)=O)s3)c2cc1OC [Example 40, 5-[5.6-Bis(methyloxy)-1H-benzimidazol-1-yl]-3-[((1R)-1-{2-chloro-3-[(4-piperidinylmethyl)oxy]phenyl}ethyl)oxy]-2-thiophenecarboxamide]
< 0.1 µM | COc1cc2ncn(-c3cc(O[C@H](C)c4cccc(OCC5CCN(C)CC5)c4Cl)c(C(N)=O)s3)c2cc1OC [Example 41, 5-[5,6-Bis(methyloxy)-1H-benzimidazol-1-yl]-3-{[(1R)-1-(2-chloro-3-{[(1-methyl-4-piperidinyl)methyl]oxy}phenyl)ethyl]oxy}-2-thiophenecarboxamide]
< 0.1 µM | COc1cc2ncn(-c3cc(O[C@H](C)c4cccc(OCCN5CCN(C)CC5)c4Cl)c(C(N)=O)s3)c2cc1OC [Example 42, 5-[5,6-Bis(methyloxy)-1H-benzimidazol-1-yl]-3-{[(1R)-1-(2-chloro-3-{[2-(4-methyl-1-piperazinyl)ethyl]oxy}phenyl)ethyl]oxy}-2-thiophenecarboxamide]
0.1 to 1 µM | C[C@@H](Oc1cc(-n2cnc3cc(-c4cnn(C)c4)ccc32)sc1C(N)=O)c1cccc(OCC2CCN(C(=O)OC(C)(C)C)CC2)c1Cl [Example 43, 1,1-Dimethylethyl 4-[({3-[(1R)-1-({2-(aminocarbonyl)-5-[5-(1-methyl-1H-pyrazol-4-yl)-1H-benzimidazol-1-yl]-3-thienyl}oxy)ethyl]-2-chlorophenyl}oxy)methyl]-1-piperidinecarboxylate]
< 0.1 µM | C[C@@H](Oc1cc(-n2cnc3cc(-c4cnn(C)c4)ccc32)sc1C(N)=O)c1cccc(OCC2CCNCC2)c1Cl [Example 44, 3-[((1R)-1-{2-Chloro-3-[(4-piperidinylmethyl)oxy]phenyl}ethyl)oxy]-5-[5-(1-methyl-1H-pyrazol-4-yl)-1H-benzimidazol-1-yl]-2-thiophenecarboxamide trifluoroacetate]

Source: patent publication US7615643B2 (SmithKline Beecham Corporation, priority 2006, dated 2009)
